Reference: the supplement of paper PMC6045584
± gives the standard deviation of the averaged measurements.

What was measured:
TEMOZOLOMIDE = compound: Cn1nnc2c(C(N)=O)ncn2c1=O [TEMOZOLOMIDE]; assay: surviving fraction relative to DMSO-only wells; higher = less growth inhibition; details: exposure time: 5 days
Procedure, shortened: (§1)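 Viability values are CellTiter-Glo luminescence readings, given as surviving fraction against the median of DMSO-only wells. The readings were taken after 10 minutes at room temperature, following five days of continuous exposure to inhibitors at 0.5, 1, 5, 10, 50, 100, 500 and 1000 nM that began 24 hours after log-phase tumour cell lines were seeded at 250–500 cells per well in 384-well plates. Every line was screened three times and kept only if replicate Pearson r >0.7 and median Z' >0.3.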

MLN-4924 = compound: NS(=O)(=O)OC[C@@H]1C[C@@H](n2ccc3c(N[C@H]4CCc5ccccc54)ncnc32)C[C@@H]1O [MLN-4924]; assay: as above; details: exposure time: 5 days
Procedure, shortened: as §1

MHM BONE
surviving fraction (TEMOZOLOMIDE; 0.5 nM): 0.9827 ± 0.0021 | surviving fraction (TEMOZOLOMIDE; 1 nM): 0.975 ± 0.007 | surviving fraction (TEMOZOLOMIDE; 5 nM): 1.01 ± 0.043 | surviving fraction (TEMOZOLOMIDE; 10 nM): 1.04 ± 0.014 | surviving fraction (TEMOZOLOMIDE; 50 nM): 0.998 ± 0.042 | surviving fraction (TEMOZOLOMIDE; 100 nM): 1.03 ± 0.029 | surviving fraction (TEMOZOLOMIDE; 500 nM): 0.973 ± 0.032 | surviving fraction (TEMOZOLOMIDE; 1000 nM): 0.998 ± 0.0056 | surviving fraction (MLN-4924; 0.5 nM): 0.973 ± 0.011 | surviving fraction (MLN-4924; 1 nM): 0.995 ± 0.024 | surviving fraction (MLN-4924; 5 nM): 1.04 ± 0.035 | surviving fraction (MLN-4924; 10 nM): 1.09 ± 0.038 | surviving fraction (MLN-4924; 50 nM): 1.37 ± 0.02 | surviving fraction (MLN-4924; 100 nM): 1.36 ± 0.015 | surviving fraction (MLN-4924; 500 nM): 0.39 ± 0.042 | surviving fraction (MLN-4924; 1000 nM): 0.286 ± 0.015

HOSMNG BONE
surviving fraction (TEMOZOLOMIDE; 0.5 nM): 0.835 ± 0.15 | surviving fraction (TEMOZOLOMIDE; 1 nM): 0.927 ± 0.11 | surviving fraction (TEMOZOLOMIDE; 5 nM): 0.795 ± 0.051 | surviving fraction (TEMOZOLOMIDE; 10 nM): 0.89 ± 0.03 | surviving fraction (TEMOZOLOMIDE; 50 nM): 0.938 ± 0.12 | surviving fraction (TEMOZOLOMIDE; 100 nM): 0.936 ± 0.16 | surviving fraction (TEMOZOLOMIDE; 500 nM): 0.995 ± 0.12 | surviving fraction (TEMOZOLOMIDE; 1000 nM): 0.957 ± 0.074 | surviving fraction (MLN-4924; 0.5 nM): 0.883 ± 0.092 | surviving fraction (MLN-4924; 1 nM): 0.897 ± 0.032 | surviving fraction (MLN-4924; 5 nM): 0.951 ± 0.024 | surviving fraction (MLN-4924; 10 nM): 0.917 ± 0.05 | surviving fraction (MLN-4924; 50 nM): 1.04 ± 0.14 | surviving fraction (MLN-4924; 100 nM): 1.08 ± 0.053 | surviving fraction (MLN-4924; 500 nM): 0.503 ± 0.18 | surviving fraction (MLN-4924; 1000 nM): 0.097 ± 0.016

C33A CERVIX
surviving fraction (TEMOZOLOMIDE; 0.5 nM): 0.944 ± 0.13 | surviving fraction (TEMOZOLOMIDE; 1 nM): 0.901 ± 0.11 | surviving fraction (TEMOZOLOMIDE; 5 nM): 1.02 ± 0.056 | surviving fraction (TEMOZOLOMIDE; 10 nM): 0.929 ± 0.088 | surviving fraction (TEMOZOLOMIDE; 50 nM): 0.944 ± 0.047 | surviving fraction (TEMOZOLOMIDE; 100 nM): 1.05 ± 0.061 | surviving fraction (TEMOZOLOMIDE; 500 nM): 0.924 ± 0.012 | surviving fraction (TEMOZOLOMIDE; 1000 nM): 0.984 ± 0.068 | surviving fraction (MLN-4924; 0.5 nM): 0.905 ± 0.042 | surviving fraction (MLN-4924; 1 nM): 0.916 ± 0.093 | surviving fraction (MLN-4924; 5 nM): 0.929 ± 0.13 | surviving fraction (MLN-4924; 10 nM): 0.952 ± 0.11 | surviving fraction (MLN-4924; 50 nM): 0.542 ± 0.032 | surviving fraction (MLN-4924; 100 nM): 0.358 ± 0.027 | surviving fraction (MLN-4924; 500 nM): 0.132 ± 0.026 | surviving fraction (MLN-4924; 1000 nM): 0.0803 ± 0.028

BT549 BREAST
surviving fraction (TEMOZOLOMIDE; 0.5 nM): 1.1 ± 0.12 | surviving fraction (TEMOZOLOMIDE; 1 nM): 1.08 ± 0.085 | surviving fraction (TEMOZOLOMIDE; 5 nM): 1.05 ± 0.1 | surviving fraction (TEMOZOLOMIDE; 10 nM): 1.12 ± 0.13 | surviving fraction (TEMOZOLOMIDE; 50 nM): 1.09 ± 0.043 | surviving fraction (TEMOZOLOMIDE; 100 nM): 1.26 ± 0.1 | surviving fraction (TEMOZOLOMIDE; 500 nM): 1.09 ± 0.07 | surviving fraction (TEMOZOLOMIDE; 1000 nM): 1.19 ± 0.14 | surviving fraction (MLN-4924; 0.5 nM): 1.05 ± 0.043 | surviving fraction (MLN-4924; 1 nM): 1 ± 0.19 | surviving fraction (MLN-4924; 5 nM): 1.02 ± 0.064 | surviving fraction (MLN-4924; 10 nM): 0.957 ± 0.052 | surviving fraction (MLN-4924; 50 nM): 0.732 ± 0.14 | surviving fraction (MLN-4924; 100 nM): 0.575 ± 0.062 | surviving fraction (MLN-4924; 500 nM): 0.194 ± 0.067 | surviving fraction (MLN-4924; 1000 nM): 0.148 ± 0.046

MDAMB231 BREAST
surviving fraction (TEMOZOLOMIDE; 0.5 nM): 0.9454 ± 0.0069 | surviving fraction (TEMOZOLOMIDE; 1 nM): 0.992 ± 0.024 | surviving fraction (TEMOZOLOMIDE; 5 nM): 0.9815 ± 0.008 | surviving fraction (TEMOZOLOMIDE; 10 nM): 1.01 ± 0.016 | surviving fraction (TEMOZOLOMIDE; 50 nM): 0.986 ± 0.013 | surviving fraction (TEMOZOLOMIDE; 100 nM): 0.998 ± 0.023 | surviving fraction (TEMOZOLOMIDE; 500 nM): 0.975 ± 0.015 | surviving fraction (TEMOZOLOMIDE; 1000 nM): 0.985 ± 0.025 | surviving fraction (MLN-4924; 0.5 nM): 0.9815 ± 0.006 | surviving fraction (MLN-4924; 1 nM): 0.978 ± 0.026 | surviving fraction (MLN-4924; 5 nM): 0.971 ± 0.025 | surviving fraction (MLN-4924; 10 nM): 0.933 ± 0.024 | surviving fraction (MLN-4924; 50 nM): 0.676 ± 0.0082 | surviving fraction (MLN-4924; 100 nM): 0.62 ± 0.035 | surviving fraction (MLN-4924; 500 nM): 0.243 ± 0.0094 | surviving fraction (MLN-4924; 1000 nM): 0.175 ± 0.0081

SG27 HEADNECK
surviving fraction (TEMOZOLOMIDE; 0.5 nM): 1.13 ± 0.058 | surviving fraction (TEMOZOLOMIDE; 1 nM): 1.1 ± 0.11 | surviving fraction (TEMOZOLOMIDE; 5 nM): 1.02 ± 0.054 | surviving fraction (TEMOZOLOMIDE; 10 nM): 1.09 ± 0.019 | surviving fraction (TEMOZOLOMIDE; 50 nM): 1.04 ± 0.061 | surviving fraction (TEMOZOLOMIDE; 100 nM): 1.16 ± 0.14 | surviving fraction (TEMOZOLOMIDE; 500 nM): 1.22 ± 0.048 | surviving fraction (TEMOZOLOMIDE; 1000 nM): 1.21 ± 0.15 | surviving fraction (MLN-4924; 0.5 nM): 1.07 ± 0.041 | surviving fraction (MLN-4924; 1 nM): 1.1 ± 0.12 | surviving fraction (MLN-4924; 5 nM): 1.11 ± 0.055 | surviving fraction (MLN-4924; 10 nM): 1.16 ± 0.13 | surviving fraction (MLN-4924; 50 nM): 0.991 ± 0.17 | surviving fraction (MLN-4924; 100 nM): 0.823 ± 0.076 | surviving fraction (MLN-4924; 500 nM): 0.618 ± 0.098 | surviving fraction (MLN-4924; 1000 nM): 0.322 ± 0.055

SYO1 SYNOVIAL
surviving fraction (TEMOZOLOMIDE; 0.5 nM): 0.971 ± 0.041 | surviving fraction (TEMOZOLOMIDE; 1 nM): 1.04 ± 0.064 | surviving fraction (TEMOZOLOMIDE; 5 nM): 0.965 ± 0.0099 | surviving fraction (TEMOZOLOMIDE; 10 nM): 1.01 ± 0.048 | surviving fraction (TEMOZOLOMIDE; 50 nM): 0.986 ± 0.059 | surviving fraction (TEMOZOLOMIDE; 100 nM): 1.01 ± 0.048 | surviving fraction (TEMOZOLOMIDE; 500 nM): 0.99733 ± 0.00067 | surviving fraction (TEMOZOLOMIDE; 1000 nM): 1.03 ± 0.016 | surviving fraction (MLN-4924; 0.5 nM): 0.996 ± 0.05 | surviving fraction (MLN-4924; 1 nM): 0.996 ± 0.029 | surviving fraction (MLN-4924; 5 nM): 1.01 ± 0.039 | surviving fraction (MLN-4924; 10 nM): 0.992 ± 0.03 | surviving fraction (MLN-4924; 50 nM): 0.65 ± 0.019 | surviving fraction (MLN-4924; 100 nM): 0.334 ± 0.028 | surviving fraction (MLN-4924; 500 nM): 0.0614 ± 0.0023 | surviving fraction (MLN-4924; 1000 nM): 0.0519 ± 0.0031

HUO3N1 BONE
surviving fraction (TEMOZOLOMIDE; 0.5 nM): 0.981 ± 0.025 | surviving fraction (TEMOZOLOMIDE; 1 nM): 0.988 ± 0.045 | surviving fraction (TEMOZOLOMIDE; 5 nM): 1.029 ± 0.0051 | surviving fraction (TEMOZOLOMIDE; 10 nM): 1.04 ± 0.042 | surviving fraction (TEMOZOLOMIDE; 50 nM): 1.01 ± 0.039 | surviving fraction (TEMOZOLOMIDE; 100 nM): 1.06 ± 0.032 | surviving fraction (TEMOZOLOMIDE; 500 nM): 0.9827 ± 0.0083 | surviving fraction (TEMOZOLOMIDE; 1000 nM): 1.02 ± 0.03 | surviving fraction (MLN-4924; 0.5 nM): 0.9977 ± 0.0055 | surviving fraction (MLN-4924; 1 nM): 0.994 ± 0.022 | surviving fraction (MLN-4924; 5 nM): 1.02 ± 0.017 | surviving fraction (MLN-4924; 10 nM): 1.05 ± 0.036 | surviving fraction (MLN-4924; 50 nM): 1.17 ± 0.041 | surviving fraction (MLN-4924; 100 nM): 1.19 ± 0.034 | surviving fraction (MLN-4924; 500 nM): 0.663 ± 0.031 | surviving fraction (MLN-4924; 1000 nM): 0.528 ± 0.014

NCIH441 LUNG
surviving fraction (TEMOZOLOMIDE; 0.5 nM): 1.07 ± 0.065 | surviving fraction (TEMOZOLOMIDE; 1 nM): 1.14 ± 0.06 | surviving fraction (TEMOZOLOMIDE; 5 nM): 1.21 ± 0.059 | surviving fraction (TEMOZOLOMIDE; 10 nM): 1.06 ± 0.066 | surviving fraction (TEMOZOLOMIDE; 50 nM): 1.04 ± 0.081 | surviving fraction (TEMOZOLOMIDE; 100 nM): 1.13 ± 0.074 | surviving fraction (TEMOZOLOMIDE; 500 nM): 1.11 ± 0.086 | surviving fraction (TEMOZOLOMIDE; 1000 nM): 1.19 ± 0.058 | surviving fraction (MLN-4924; 0.5 nM): 1.08 ± 0.077 | surviving fraction (MLN-4924; 1 nM): 1.15 ± 0.099 | surviving fraction (MLN-4924; 5 nM): 1.11 ± 0.087 | surviving fraction (MLN-4924; 10 nM): 1.12 ± 0.03 | surviving fraction (MLN-4924; 50 nM): 1.01 ± 0.051 | surviving fraction (MLN-4924; 100 nM): 0.846 ± 0.11 | surviving fraction (MLN-4924; 500 nM): 0.431 ± 0.033 | surviving fraction (MLN-4924; 1000 nM): 0.414 ± 0.022

ASKA SYNOVIAL
surviving fraction (TEMOZOLOMIDE; 0.5 nM): 1.03 ± 0.078 | surviving fraction (TEMOZOLOMIDE; 1 nM): 1.03 ± 0.066 | surviving fraction (TEMOZOLOMIDE; 5 nM): 1.12 ± 0.044 | surviving fraction (TEMOZOLOMIDE; 10 nM): 1.22 ± 0.12 | surviving fraction (TEMOZOLOMIDE; 50 nM): 1.14 ± 0.082 | surviving fraction (TEMOZOLOMIDE; 100 nM): 1.24 ± 0.02 | surviving fraction (TEMOZOLOMIDE; 500 nM): 1.15 ± 0.055 | surviving fraction (TEMOZOLOMIDE; 1000 nM): 1.2 ± 0.058 | surviving fraction (MLN-4924; 0.5 nM): 1.11 ± 0.025 | surviving fraction (MLN-4924; 1 nM): 1.01 ± 0.02 | surviving fraction (MLN-4924; 5 nM): 1.08 ± 0.14 | surviving fraction (MLN-4924; 10 nM): 1.151 ± 0.011 | surviving fraction (MLN-4924; 50 nM): 0.946 ± 0.18 | surviving fraction (MLN-4924; 100 nM): 0.486 ± 0.08 | surviving fraction (MLN-4924; 500 nM): 0.33 ± 0.04 | surviving fraction (MLN-4924; 1000 nM): 0.348 ± 0.019
